Tested on: collagen induced arthritis (CIA) in DBA/1 mice
Experiment: Mouse collagen induced arthritis (CIA) slow-progressing disease model
Type: in vivo
Settings: 100 mg/kg IP QD, 20 days, mild CIA model, n=10, P<0.05
Procedure: Compounds of the invention were evaluated in mouse collagen induced arthritis (CIA) models. There are several known CIA models as outlined in the table below:
The CIA studies utilized a mild (slow-progressing) disease model. The DBA/1 mice developed collagen induced arthritis (CIA) after immunization with Hooke Kit™ chicken collagen/Complete Freund's Adjuvant (CFA) emulsion (EK-0210), followed by a booster dose of Hooke Kit™ chicken collagen/Incomplete Freund's Adjuvant (IFA) emulsion (EK-0211). Each study used 54 female DBA/1 mice (Taconic Farms model DBA1BO, 9 weeks old) later assigned to […] with 10 mice per group. 4 mice were not immunized nor treated, and they were left as naïve controls group for possible histological analysis. The other 50 mice were treated therapeutically.
One study comprises group 1—Vehicle, group 2—CP-690550, 30 mg/kg PO QD, group 3—R-788, 60 mg/kg PO QD and group 4—compound 7, 100 mg/kg, IP QD. The other study comprises group 1—Vehicle, group 2—compound 7, 15 mg/kg PO QD, group 3—compound 7, 30 mg/kg PO QD and group 4—compound 7, 100 mg/kg, IP QD.
Mice were first immunized with collagen/CFA emulsion on Day 0 after being acclimated for at least 7 days. The procedure of immunization was as follows: A mouse was immobilized using a restrainer. The tail was cleaned with 70% ethanol and the area was wiped dry with sterile gauze. […]

## O=C(CN1CCOCC1)Nc1cccc(-c2nc(-c3c[nH]c(C(=O)N4CCCC4)c3)cs2)c1 [7A, 2-morpholino-N-(3-(4-(5-(pyrrolidine-1-carbonyl)-1H-pyrrol-3-yl)thiazol-2-yl)phenyl)acetamide]
  CIA score on the last day vs. combined vehicle: reduction in CIA score
